Test results reported in patent US12389911B2, “Benzimidazole compound or salt thereof, agricultural and horticultural insecticidal and acaricidal agent containing said compound, and method for using same” (NIHON NOHYAKU CO., LTD., priority 2019, dated 2025).

Key:
[1] = system: Green peach aphid (Myzus persicae); test: Test for control efficacy on green peach aphid (foliar application on Chinese cabbage); assay type: in vivo; conditions: 500 ppm, foliar application to potted Chinese cabbage, 6 days after application
From the text: Test for Control Efficacy on Green Peach Aphid (Myzus persicae) Chinese cabbage plants were planted in plastic pots (diameter: 8 cm, height: 8 cm), green peach aphids were propagated on the plants, and the number of surviving Green peach aphids in each pot was counted. The benzimidazole compounds represented by the general formula (1) of the present invention or salts thereof were separately dispersed in water and diluted to 500 ppm. The agrochemical dispersions were applied to the foliage of the potted Chinese cabbage plants. After the plants were air-dried, the pots were kept in a greenhouse. At 6 days after the foliar application, the number of surviving Green peach aphids on the Chinese cabbage plant in each pot was counted, the control rate was calculated according to the formula shown below, and the control efficacy was evaluated according to the criteria shown below. Control rate=100−{(T×Ca)/(Ta×C)}×100 [Expression 1] Ta: the number of survivors before the foliar application in a treatment plot T: the number of survivors after the foliar application in a treatment plot Ca: the number of survivors before the foliar application in a non-treatment plot C: the number of survivors after the foliar application in a non-treatment plot Criteria • A: the control rate is 100%. • B: the control rate is 90 to 99%. • C: the control rate is 80 to 89%. • D: the control rate is 50 to 79%.

[2] = system: Two-spotted spider mite (Tetranychus urticae); test: Acaricidal action on two-spotted spider mite (kidney bean leaf disk spray); assay type: in vivo; conditions: 500 ppm, adult females, 25° C., two days after treatment
Method: Acaricidal Action on Two-Spotted Spider Mite (Tetranychus urticae)
Leaf disk having a diameter of 2 cm was prepared by leaves of kidney bean, and the leaf disk was placed on the wetted filter paper. Adult hens of two-spotted spider mite were inoculated on the wetted filter paper, and then 50 ml of an agrochemical dispersion, prepared by diluting a formulation containing the benzimidazole compound represented by the general formula (1) of the present invention or salt thereof as an active ingredient to adjust each of the concentrations to 500 ppm, was sprayed on turntable uniformly. After the spraying, it was allowed to stand in a thermostatic chamber at 25° C. Two days after the treatment of an agrochemical dispersion, the dead mites were counted, the corrected mortality rate was calculated according to the formula shown below, and the acaricidal efficacy was evaluated according to the criteria of Test Example 2. This test was conducted in duplicate using 10 adult hens of two-spotted spider per plot. Corrected mortality(%)=(Number of dead mites in a non-treatment plot−Number of dead mites in a treatment plot)/(Number of dead mites in a non-treatment plot)×100 [Expression 4]

## CCS(=O)(=O)n1c(-n2cnc(CCc3ccc(Cl)cc3Cl)c2)nc2ccccc21 [Compound 1-13]
[1]
  control efficacy (control rate), activity level: D or higher
[2]
  acaricidal efficacy (corrected mortality rate), activity level: D or higher

## CCS(=O)(=O)n1c(-n2cc(C(=O)OC(C)C)c(C(F)(F)F)n2)nc2ccccc21 [Compound 2-53]
[1]
  control efficacy (control rate), activity level: D or higher
[2]
  acaricidal efficacy (corrected mortality rate), activity level: D or higher

## CCS(=O)(=O)n1c(-n2cc(C(F)(C(F)(F)F)C(F)(F)F)cn2)nc2ccccc21 [Compound 2-10]
[1]
  control efficacy (control rate), activity level: D or higher
[2]
  acaricidal efficacy (corrected mortality rate), activity level: D or higher

## CCOC(=O)c1cn(-c2nc3ccccc3n2S(=O)(=O)CC)nc1C(F)(F)F [Compound 2-26]
[1]
  control efficacy (control rate), activity level: D or higher
[2]
  acaricidal efficacy (corrected mortality rate), activity level: D or higher

## CCS(=O)(=O)n1c(-n2cnc(Cc3ccccc3)c2)nc2ccccc21 [Compound 1-8]
[1]
  control efficacy (control rate), activity level: D or higher
[2]
  acaricidal efficacy (corrected mortality rate), activity level: D or higher

## CCS(=O)(=O)n1c(-n2cnc(C(F)(F)F)n2)nc2ccccc21 [Compound 3-1]
[1]
  control efficacy (control rate), activity level: D or higher
[2]
  acaricidal efficacy (corrected mortality rate), activity level: D or higher

## CCCCCC/C=C\c1cn(-c2nc3ccccc3n2S(=O)(=O)CC)cn1 [Compound 1-6]
[1]
  control efficacy (control rate), activity level: D or higher
[2]
  acaricidal efficacy (corrected mortality rate), activity level: D or higher

## CCS(=O)(=O)n1c(-n2cc(C(=O)OCC(C)(C)C)c(C(F)(F)F)n2)nc2ccccc21 [Compound 2-28]
[1]
  control efficacy (control rate), activity level: D or higher
[2]
  acaricidal efficacy (corrected mortality rate), activity level: D or higher

## CCS(=O)(=O)n1c(-n2cc(C(=O)OC(C)(C)C)cn2)nc2ccccc21 [Compound 2-11]
[1]
  control efficacy (control rate), activity level: D or higher
[2]
  acaricidal efficacy (corrected mortality rate), activity level: D or higher

## CCS(=O)(=O)n1c(-n2cnc(COCC(F)(F)C(F)(F)C(F)(F)F)c2)nc2ccccc21 [Compound 1-32]
[1]
  control efficacy (control rate), activity level: D or higher
[2]
  acaricidal efficacy (corrected mortality rate), activity level: D or higher

## CCS(=O)(=O)n1c(-n2cc(Br)c(OCC(F)(F)C(F)(F)F)n2)nc2ccccc21 [Compound 2-40]
[1]
  control efficacy (control rate), activity level: D or higher
[2]
  acaricidal efficacy (corrected mortality rate), activity level: D or higher

## CCS(=O)(=O)n1c(-n2cc(/C=C/C(=O)OC(C)(C)C)c(C(F)(F)F)n2)nc2ccccc21 [Compound 2-24]
[1]
  control efficacy (control rate), activity level: D or higher
[2]
  acaricidal efficacy (corrected mortality rate), activity level: D or higher

## CCCCCCCCc1cn(-c2nc3ccccc3n2S(=O)(=O)CC)cn1 [Compound 1-4]
[1]
  control efficacy (control rate), activity level: D or higher
[2]
  acaricidal efficacy (corrected mortality rate), activity level: D or higher

## CCS(=O)(=O)n1c(-n2cnc(C(=O)Nc3ccccc3)c2)nc2ccccc21 [Compound 1-30]
[1]
  control efficacy (control rate), activity level: D or higher

## CCS(=O)(=O)n1c(-n2cnc(C(F)(F)C(F)(F)C(F)(F)C(F)(F)F)c2)nc2ccccc21 [Compound 1-27]
[1]
  control efficacy (control rate), activity level: D or higher
[2]
  acaricidal efficacy (corrected mortality rate), activity level: D or higher

## CCS(=O)(=O)n1c(-n2cc(Cl)c(C(F)(F)F)n2)nc2ccccc21 [Compound 2-13]
[1]
  control efficacy (control rate), activity level: D or higher
[2]
  acaricidal efficacy (corrected mortality rate), activity level: D or higher

## CCS(=O)(=O)n1c(-n2cc(C(=O)OC(C)(C)C)c(C(F)F)n2)nc2ccccc21 [Compound 2-51]
[1]
  control efficacy (control rate), activity level: D or higher
[2]
  acaricidal efficacy (corrected mortality rate), activity level: D or higher

## CCc1cn(-c2nc3ccccc3n2S(=O)(=O)CC)nc1C(F)(F)F [Compound 2-19]
[1]
  control efficacy (control rate), activity level: D or higher
[2]
  acaricidal efficacy (corrected mortality rate), activity level: D or higher

## CS(=O)(=O)n1c(-n2cc(I)c(C(F)(F)F)n2)nc2ccccc21 [Compound 2-15]
[1]
  control efficacy (control rate), activity level: D or higher
[2]
  acaricidal efficacy (corrected mortality rate), activity level: D or higher

## CCS(=O)(=O)n1c(-n2nc(COC(C)(C)C)c(C(=O)OC(C)(C)C)c2C)nc2ccccc21 [Compound 2-91]
[2]
  acaricidal efficacy (corrected mortality rate), activity level: D or higher

## CCS(=O)(=O)n1c(-n2cc(C(=O)OC(C)(C)C)c(C#CC(C)(C)C)n2)nc2ccccc21 [Compound 2-145]
[2]
  acaricidal efficacy (corrected mortality rate), activity level: D or higher

## CCS(=O)(=O)n1c(-n2cc(Br)c(Br)n2)nc2ccccc21 [Compound 2-34]
[1]
  control efficacy (control rate), activity level: D or higher
[2]
  acaricidal efficacy (corrected mortality rate), activity level: D or higher

## CCS(=O)(=O)n1c(-n2cc(Cl)c(OCC(F)(F)C(F)(F)F)n2)nc2ccccc21 [Compound 2-39]
[1]
  control efficacy (control rate), activity level: D or higher
[2]
  acaricidal efficacy (corrected mortality rate), activity level: D or higher

## CCOC(=O)c1cn(-c2nc3ccccc3n2S(=O)(=O)CC)nc1I [Compound 2-81]
[2]
  acaricidal efficacy (corrected mortality rate), activity level: D or higher

## CCS(=O)(=O)n1c(-n2cc(C(=O)NC3CC3)c(C(C)(C)C)n2)nc2ccccc21 [Compound 2-96]
[2]
  acaricidal efficacy (corrected mortality rate), activity level: D or higher

## CCCCCc1cn(-c2nc3ccccc3n2S(=O)(=O)CC)nc1C(F)(F)F [Compound 2-125]
[2]
  acaricidal efficacy (corrected mortality rate), activity level: D or higher

## CCC(C)(C)OC(=O)c1cn(-c2nc3ccccc3n2S(=O)(=O)CC)nc1C(F)(F)F [Compound 2-54]
[1]
  control efficacy (control rate), activity level: D or higher
[2]
  acaricidal efficacy (corrected mortality rate), activity level: D or higher

## CCS(=O)(=O)n1c(-n2cc(C#CCOCC(F)(F)F)c(C(F)(F)F)n2)nc2ccccc21 [Compound 2-138]
[2]
  acaricidal efficacy (corrected mortality rate), activity level: D or higher

## CCS(=O)(=O)n1c(-n2cnc(C(F)(F)C(F)(F)C(F)(F)C(F)(F)C(F)(F)C(F)(F)F)c2)nc2ccccc21 [Compound 1-28]
[2]
  acaricidal efficacy (corrected mortality rate), activity level: D or higher

## CCS(=O)(=O)n1c(-n2cc(S(=O)(=O)N(C)C)c(C(F)(F)F)n2)nc2ccccc21 [Compound 2-120]
[2]
  acaricidal efficacy (corrected mortality rate), activity level: D or higher

## CCS(=O)(=O)n1c(-n2cc(/C=C/C(=O)OCC(C)(C)C)c(C(F)(F)F)n2)nc2ccccc21 [Compound 2-113]
[2]
  acaricidal efficacy (corrected mortality rate), activity level: D or higher

## C#CCOc1nn(-c2nc3ccccc3n2S(=O)(=O)CC)cc1C(=O)OC(C)(C)C [Compound 2-92]
[2]
  acaricidal efficacy (corrected mortality rate), activity level: D or higher

## CCOc1nn(-c2nc3ccccc3n2S(=O)(=O)CC)cc1C(=O)OC(C)(C)C [Compound 2-73]
[2]
  acaricidal efficacy (corrected mortality rate), activity level: D or higher

## CCS(=O)(=O)n1c(-n2cc(C(=O)OC(C)(C)C)c(OCC(F)(F)F)n2)nc2ccccc21 [Compound 2-76]
[2]
  acaricidal efficacy (corrected mortality rate), activity level: D or higher

## CCS(=O)(=O)n1c(-n2cc(C#CC(C)(C)C)c(C(F)(F)F)n2)nc2ccccc21 [Compound 2-124]
[2]
  acaricidal efficacy (corrected mortality rate), activity level: D or higher

## CCS(=O)(=O)n1c(-n2cc(CCCOC(=O)C(C)(C)C)c(C(F)(F)F)n2)nc2ccccc21 [Compound 2-134]
[2]
  acaricidal efficacy (corrected mortality rate), activity level: D or higher

## CCS(=O)(=O)n1c(-n2cc(C(=O)OC(C)(C)C)c(OCC(F)F)n2)nc2ccccc21 [Compound 2-77]
[2]
  acaricidal efficacy (corrected mortality rate), activity level: D or higher

## CCS(=O)(=O)n1c(-n2cc(C(=O)OC(C)(C)C)c(OCC(F)(F)C(F)(F)F)n2)nc2ccccc21 [Compound 2-52]
[2]
  acaricidal efficacy (corrected mortality rate), activity level: D or higher

## CCS(=O)(=O)n1c(-n2cc(C#Cc3ccccc3)c(C(=O)OC(C)(C)C)n2)nc2ccccc21 [Compound 2-106]
[2]
  acaricidal efficacy (corrected mortality rate), activity level: D or higher

## CCS(=O)(=O)n1c(-n2cc(C3CC3)c(C(F)(F)F)n2)nc2ccccc21 [Compound 2-20]
[1]
  control efficacy (control rate), activity level: D or higher
[2]
  acaricidal efficacy (corrected mortality rate), activity level: D or higher

## CCS(=O)(=O)n1c(-n2cnc(C(F)(F)C(F)(F)F)n2)nc2ccccc21 [Compound 3-2]
[2]
  acaricidal efficacy (corrected mortality rate), activity level: D or higher

## CCS(=O)(=O)n1c(-n2cc(CCC(=O)OC(C)(C)C)c(OCC(F)(F)F)n2)nc2ccccc21 [Compound 2-102]
[2]
  acaricidal efficacy (corrected mortality rate), activity level: D or higher

## CCCc1nn(-c2nc3ccccc3n2S(=O)(=O)CC)cc1C(=O)OC(C)(C)C [Compound 2-72]
[2]
  acaricidal efficacy (corrected mortality rate), activity level: D or higher

## CCS(=O)(=O)n1c(-n2cc(C(=O)OC)c(C(=O)OC)c2)nc2ccccc21 [Compound 7-6]
[2]
  acaricidal efficacy (corrected mortality rate), activity level: D or higher

## CCS(=O)(=O)n1c(-n2cc(CCc3ccccc3)c(C(=O)OC(C)(C)C)n2)nc2ccccc21 [Compound 2-107]
[2]
  acaricidal efficacy (corrected mortality rate), activity level: D or higher
